Measured values published in PMC9181938, “Fluorinated Analogues of Lepidilines A and C: Synthesis and Screening of Their Anticancer and Antiviral Activity” (Molecules, 2022).
Like-named read-outs stand apart in the source and are kept apart here.

Legend:
[1] = Cytotoxicity MTT assay (0.1–1000 µM), CC50; assay type: cell-based, Macaca mulatta; conditions: Macaca mulatta, LLC-MK2 cells, LLC-MK2, MTT, 48 h; read-out: CC50 Normal Cell Lines LLC-MK2
[2] = system: LLC-MK2 cells; assay: Cytotoxicity MTT assay (0.1–1000 µM), CC50; assay type: cell-based, Macaca mulatta
[3] = Cytotoxicity screening at 10 µM (MTT); assay type: cell-based, Cercopithecus aethiops; conditions: Cercopithecus aethiops, Vero cells, read-out: Cell line (viability %) Vero
[4] = system: LLC-MK2 cells; assay: Cytotoxicity screening at 10 µM (MTT); assay type: cell-based, Macaca mulatta; conditions: 48 h
[5] = Cytotoxicity screening at 10 µM (MTT); assay type: cell-based, Mus musculus; conditions: Mus musculus, NCTC clone 929 cells, read-out: Cell line (viability %) NCTC clone 929
[6] = Cytotoxicity screening at 10 µM (MTT); assay type: cell-based, Human; conditions: human, MRC-5 cells, read-out: Cell line (viability %) MRC-5
[7] = Cytotoxicity screening at 10 µM (MTT); assay type: cell-based, Human; conditions: human, HeLa cells, read-out: Cell line (viability %) HeLa
[8] = system: Human parainfluenza virus type 3 (HPIV-3); assay: Antiviral activity assay (0.1–1000 µM), IC50; assay type: cell-based; conditions: Table S4, range 0.1-1000 µM, HPIV-3; read-out: IC50 (M) HPIV-3
Procedure: (§1) Antiviral properties of compounds 1e–1g, 1e[PF6], 8a–8d, and 9a were assessed against five viruses: Human herpesvirus 1 (HSV-1, VR-539), Human parainfluenza virus type 3 (HPIV-3, VR-93), Human adenovirus 5 (AdV5, VR-5), Human herpesvirus 5 (HCMV, VR-977), and Encephalomyocarditis virus (EMCV, VR-1479). Viruses were purchased from the American Type Culture Collection (ATCC, Manassas, VA, USA).
(§2) All tested compounds were dissolved in DMSO (dimethyl sulfoxide, Sigma-Aldrich, Darmstadt, Germany) and then suspended in Minimum Essential Medium (MEM; Sigma-Aldrich, Darmstadt, Germany) supplemented with 2% heat-inactivated fetal bovine serum (FBS; Sigma-Aldrich, Darmstadt, Germany), 2 mM L-glutamine (Sigma-Aldrich, Darmstadt, Germany), and 100 units/mL penicillin G with […] streptomycin (Sigma-Aldrich, Darmstadt, Germany).
Investigated cells were propagated in Minimum Essential Medium (MEM; Sigma-Aldrich, Darmstadt, Germany) supplemented with 10% heat-inactivated fetal bovine serum (FBS; Sigma-Aldrich, Darmstadt, Germany) and 100 units/mL penicillin G with […] streptomycin (Sigma-Aldrich, Darmstadt, Germany). After reaching 80–90% confluency, cells were harvested with trypsin (Life Technologies, Warsaw, Poland) and seeded into 96-well microplates at 2 × 10^5 cells/mL after overnight incubation of cells at 37 °C in a humidified atmosphere containing 5% CO2.
The culture medium was removed from confluent cells grown in 96-well microplates, and the cells were inoculated with virus solutions in MEM supplemented with 2% FBS and antibiotics (HSV-1 MOI 0.005, 1000 virions/mL; HPIV-3 MOI 0.01, 2000 virions/mL; AdV5 MOI 0.005, 1000 virions/mL; EMCV 0.005, 1000 virions/mL; HCMV 20 PFU/well (plaque-forming units per well). After a 1-h (HSV-1, HPIV-3, AdV5, and EMCV) or 2-h adsorption period (HCMV), residual viral particles were removed, and infected cells were further incubated with MEM supplemented with 2% FBS containing compound concentrations in the range from 0.1 to 1000 µM [38]. All experiments were carried out in triplicate. The cell monolayers were incubated with the investigated compounds at 37 °C in a humidified atmosphere containing 5% CO2 until a cytopathic effect (CPE) was visible. Viral infection was evaluated by the MTT assay (as described previously) or plaque reduction assay. HCMV plaques were counted under an inverted microscope, Olympus IX73 (Olympus, Tokyo, Japan). Antiviral activity was expressed as the concentration required to reduce the number of viral plaques to 50% of the control (virus-infected but untreated).

[9] = system: Encephalomyocarditis virus (EMCV); assay: Antiviral screening at 10 µM; assay type: cell-based; conditions: EMCV-infected cells
Procedure: as §1, with “1a, 1c, 1a[PF6], 1c[PF6], 9b[PF6], 9c[PF6], 10a–10d, 2a,” for “1e–1g, 1e[PF6], 8a–8d,”, “2b” for “9a”
as §2
(§3) Vero, LLC-MK2, NCTC clone 929, MRC-5, and HeLa cells were propagated in Minimum Essential Medium (MEM; Sigma-Aldrich, Darmstadt, Germany) supplemented with 10% heat-inactivated fetal bovine serum (FBS; Sigma-Aldrich, Darmstadt, Germany) and 100 units/mL penicillin G with […] streptomycin (Sigma-Aldrich, Darmstadt, Germany). Upon reaching 80–90% confluency, cells were harvested with 0.25% trypsin in 1 mM EDTA (Life Technologies, Warsaw, Poland) and seeded onto 96-well microplates at 2 × 10^5 cells/mL. After overnight incubation of cells at 37 °C in a humidified atmosphere containing 5% CO2, the culture medium was removed, and cells were inoculated with the respective virus solution in MEM supplemented with 2% FBS and antibiotics (HSV-1 MOI 0.005, 1000 virions/mL; HPIV-3 MOI 0.01, 2000 virions/mL; AdV5 MOI 0.005, 1000 virions/mL, EMCV MOI 0.005, 1000 virions/mL, HCMV 20 PFU (plaque forming units) per well). After a 1-h (HSV-1, HPIV-3, AdV5, and EMCV) or 2-h adsorption period (HCMV), the residual virus was removed, and the infected cells were further incubated with a 100 μL freshly prepared solution of tested compounds diluted with a maintenance medium supplemented with 2% FBS to obtain compound concentrations of 10 µM. The final concentration of DMSO in the medium was 0.1%. All experiments were carried out in triplicate. The cells monolayers were incubated with the compounds at 37 °C in a humidified atmosphere containing 5% CO2 until the typical cytopathic effect (CPE) was visible. Viral infection was evaluated by the MTT assay or plaque reduction assay (HCMV). After incubation with drugs, the cells were treated with 3-(4,5-dimethylthiazol-2-yl)-2,5-diphenyltetrazolium bromide dye solution (MTT, Sigma-Aldrich, Darmstadt, Germany) (25 μL, 5 mg/mL) for 2 h and lysed with solvent solution (100 μL) containing: DMF (Sigma-Aldrich, Darmstadt, Germany) (45 mL), SDS (Sigma-Aldrich, Darmstadt, Germany) (13.5 g), and distilled water (55 mL). After overnight incubation at 37 °C, the optical density at 550 nm and a reference wavelength of 670 nm were measured on a microplate spectrophotometer, Varioskan Lux (Thermo Fisher Scientific, Waltham, MA, USA). The number of HCMV plaques was counted under an inverted microscope Olympus IX73 (Olympus, Tokyo, Japan).

[10] = system: Human adenovirus 5 (AdV5); assay: Antiviral screening at 10 µM; assay type: cell-based; conditions: AdV5-infected cells
Procedure: as §1, with “1a, 1c, 1a[PF6], 1c[PF6], 9b[PF6], 9c[PF6], 10a–10d, 2a,” for “1e–1g, 1e[PF6], 8a–8d,”, “2b” for “9a”
as §2, §3

[11] = system: Human herpesvirus 1 (HSV-1); assay: Antiviral screening at 10 µM; assay type: cell-based; conditions: HSV-1-infected cells
Procedure: as §1, with “1a, 1c, 1a[PF6], 1c[PF6], 9b[PF6], 9c[PF6], 10a–10d, 2a,” for “1e–1g, 1e[PF6], 8a–8d,”, “2b” for “9a”
as §2, §3

[12] = system: Human parainfluenza virus type 3 (HPIV-3); assay: Antiviral screening at 10 µM; assay type: cell-based; conditions: HPIV-3-infected cells
Procedure: as §1, with “1a, 1c, 1a[PF6], 1c[PF6], 9b[PF6], 9c[PF6], 10a–10d, 2a,” for “1e–1g, 1e[PF6], 8a–8d,”, “2b” for “9a”
as §2, §3

[13] = system: Vero cells; assay: Cytotoxicity screening at 10 µM (MTT); assay type: cell-based, Cercopithecus aethiops; conditions: 48 h
[14] = system: NCTC clone 929 cells; assay: Cytotoxicity screening at 10 µM (MTT); assay type: cell-based, Mus musculus; conditions: 48 h
[15] = system: MRC-5 cells; assay: Cytotoxicity screening at 10 µM (MTT); assay type: cell-based, Human; conditions: 48 h
[16] = system: HeLa cells; assay: Cytotoxicity screening at 10 µM (MTT); assay type: cell-based, Human; conditions: 48 h
[17] = Table S2, range 0.1-1000 µM, LLC-MK2, read-out: Cell line (CC50 M) LLC-MK2

SMILES: COc1cccc(Cn2c[n+](Cc3ccccc3)c(C)c2C)c1 [Compound 1c, lepidiline C, reference compound]
- CC50 at 48 h [1]: < 80 µM
- CC50 [2, 17]: 28.3 ± 5.86 µM
- viability at 48 h, 10 µM [3]: 90.7%
- Cell line (viability %) LLC-MK2 [4]: 78.4%
- viability at 48 h, 10 µM [5]: 8.8%
- viability at 48 h, 10 µM [6]: 76.7%
- viability at 48 h, 10 µM [7]: 8.9%
- IC50 [8]: > 2.83e-05 M
- viability at 10 µM ([9]; Cardiovirus A, read-out: Cell line (viability %) EMCV): 7.7%
- viability at 10 µM ([10]; Human mastadenovirus C, read-out: Cell line (viability %) AdV5): 17.9%
- viability at 10 µM ([11]; Human alphaherpesvirus 1, antiviral screening, read-out: Cell line (viability %) HSV-1): 18.6%
- viability at 10 µM ([12]; Human respirovirus 3, antiviral screening, read-out: Cell line (viability %) HPIV-3): 90.4%

SMILES: Cc1c(C)[n+](Cc2ccccc2)cn1Cc1ccccc1 [1a[PF6]]
- CC50 ([2]; LLC-MK2, MTT, 48 h, read-out: CC50 Normal Cell Lines LLC-MK2): < 80 µM
- CC50 [2, 17]: 32.7 ± 6.81 µM
- Cell line (viability %) Vero [13]: 89.0%
- Cell line (viability %) LLC-MK2 [4]: 90.3%
- Cell line (viability %) NCTC clone 929 [14]: 56.2%
- Cell line (viability %) MRC-5 [15]: 78.6%
- Cell line (viability %) HeLa [16]: 23.4%
- IC50 [8]: > 3.27e-05 M
- Cell line (viability %) EMCV [9]: 7.8%
- Cell line (viability %) AdV5 [10]: 15.3%
- Cell line (viability %) HSV-1 ([11]; antiviral screening): 17.5%
- Cell line (viability %) HPIV-3 ([12]; antiviral screening): 62.4%
